Measured values taken from patent US20230321106A1, “USE OF TOPICAL BRAF INHIBITOR COMPOSITIONS FOR TREATMENT OF EPIDERMAL GROWTH FACTOR RECEPTOR DOWNSTREAM EFFECTORS - INDUCED CUTANEOUS REACTIONS” (Lutris Pharma Ltd., priority 2020, published 2023).
Entries after “also recorded” stand apart in the source; their conditions may differ.

Assays:
[1] = Phase 1 clinical trial of topical LUT014 gel: safety and tolerability; type: in vivo, human
From the text: This was an open-label, dose escalation study of LUT014 gel topically administered for four weeks. A 2-week screening period (day −14 to day −1) was followed by a 4-week treatment period (day 0 to day 27). Patients applied the study drug once daily to their face, neck, chest, and upper back. The post-treatment safety follow-up period ran from day 28 to day 55. Additionally, two long term safety follow up visits were done 3 and 6 months after completion of treatment, including a dermatological exam to detect any potential BRAF inhibitor skin toxicities within the treatment area.
Three dose levels of LUT014 gel were tested: 0.3 mg/g, 1.0 mg/g and 2.5 mg/g. The dose of LUT014 was escalated in sequential dose cohorts of 3 to 6 patients, in a conventional 3+3 escalating dose design. Escalation to the next dose level was permitted if no DLT was reported by the three patients in the cohort within 4 weeks of receiving the first dose of LUT014. If one out of three patients developed a dose limiting toxicity (DLT), additional three patients were planned to be treated with study drug at the same dose level. At any given dose level, if more than one out of the three or six patients experienced a DLT within 4 weeks of receiving the first dose of LUT014, the dose level was determined to have exceeded the MTD, and the MTD was set to be the next lower dose.
A DLT was defined as any treatment-emergent grade 2 or higher clinically significant adverse event, with the exception of a transient grade 2 adverse event (i.e., one that returns to grade 1 or baseline within 7 days) or grade 2 adverse event that was manageable with standard of care (i.e., one that returns to grade 1 or baseline within 14 days), that occurred within 4 weeks of the first dose of study drug for which there was a reasonable possibility that LUT014 had caused the event. Upon completion of the 4-week treatment period of the third patient in each dosing cohort, a Safety Review Committee (SRC) meeting was set to review the safety data and to provide recommendation/decision on dose escalation/de-escalation, or expansion of dosing cohort.
Safety and tolerability were assessed primarily based on the adverse events from day 0 to day 55. In addition to the adverse events assessment, the safety measurements included physical examination, vital signs and body weight, 12-lead ECG, ECOG performance status, safety labs including complete blood count, comprehensive metabolic panel and urinalysis. At 3 and 6 months […] a dermatologist performed a skin assessment of the areas of the skin where LUT014 gel was applied to screen for potential cutaneous toxicities known to be associated with approved BRAF inhibitors, including erythema nodosum-type rash, photosensitivity, squamous papillomas or warts, keratoacanthomas, cutaneous squamous cell carcinoma, dry skin, and folliculitis or cysts (Welsh, et al., Therapeutic advances in medical oncology 7, 122-136, 2015).

[2] = test system: MIA-PaCa-2 cells; assay: MIA-PaCa-2 cellular proliferation (ATP-lite, 72 hours); type: cell-based, human
Method: MIA-PaCa-2 cells (ATCC catalog number CRM-CRL-1420, Manassas, VA) were cultured at 37° C. in T75 flasks in growth medium DMEM (ATCC) supplemented with 10% FBS and 2.5% horse serum. After 4 days, when the flasks reached 50% confluence, cells were harvested with trypsin and seeded in 96 well plates at a concentration of 5000 cells/well, in a total volume of 0.1 ml/well starvation medium and incubated 24 hours at 37° C., 5% CO2. The next morning, medium was replaced with 180 μl growth medium (containing 10% FBS and 2.5% horse serum) and 20 μl of each concentration of LUT014, DMSO or PBS. Each concentration of each compound was added to triplicate wells. The plates were incubated for 72 hours at 37° C., 5% CO2. Cellular proliferation was measured using the ATP-lite proliferation assay (Perkin Elmer, Waltham, MA) following the manufacturer's instructions, with the luminescence measured using a CLARIOstar reader (BMG Labtech, Ortenberg, Germany), and analyzed with the ATPlite TOP program (Perkin Elmer).

[3] = test system: phosphorylated ERK1/2 (MAPK pathway) in primary adult human epidermal keratinocytes (HEKa); assay: pERK induction in HEKa cells, Western blot (phosphorylated ERK1/2 / total ERK2); type: cell-based; settings: 0.3 μM, two hours
Method: Primary HEKa, isolated from adult skin of a single donor and cryopreserved at the end of primary culture (Gibco catalog number C0055C, Thermo Fisher Scientific, Waltham, MA), were cultured in T25 flasks at 37° C., 5% CO2 in growth medium (Epilife™ CF Kit, Gibco) supplemented with 60 μM calcium (Gibco) and HKGS (Gibco). After at least three passages, cells were harvested with trypsin when flask reached 70-80% confluence, and seeded in 10 cm culture dishes (250,000 cells/dish) in 9 ml of growth medium overnight. To analyze the effect of HKGS or a BRAF inhibitor on pERK, cells were starved for 2.5 hours in 5 mL of starvation medium without HKGS, and then individual plates were incubated for two hours with DMSO 0.1%, HKGS, vemurafenib 0.3 μM (0.146 μg/mL), or LUT014 0.3 μM (0.158 μg/mL). To analyze the effects of LUT014 to re-activate pERK in HKGS-activated HEKa cells cultured in an EGFR inhibitor, cells were seeded in 60 mm dishes (120,000 cells/dish) in 4 ml growth medium. […] The signals of phosphorylated ERK1/2 and total ERK2 were quantified using ImageJ software and the phosphorylated ERK1/2/total ERK2 ratio was calculated. For the quantification, equal sized rectangles were drawn around the bands of the phosphorylated ERK1/2 and the total ERK2 and the pixels in each rectangle were measured.

[4] = test system: phosphorylated ERK1/2 (MAPK pathway) in HKGS-activated HEKa cells; assay: Reversal of EGFR inhibitor-mediated pERK inhibition in HKGS-activated HEKa cells, Western blot; type: cell-based, human; settings: HKGS plus EGFR inhibitor plus LUT014 0.3 μM, two hours
Method: Primary HEKa, isolated from adult skin of a single donor and cryopreserved at the end of primary culture (Gibco catalog number C0055C, Thermo Fisher Scientific, Waltham, MA), were cultured in T25 flasks at 37° C., 5% CO2 in growth medium (Epilife™ CF Kit, Gibco) supplemented with 60 μM calcium (Gibco) and HKGS (Gibco). After at least three passages, cells were harvested with trypsin when flask reached 70-80% confluence, and seeded in 10 cm culture dishes (250,000 cells/dish) in 9 ml of growth medium overnight. To analyze the effect of HKGS or a BRAF inhibitor on pERK, cells were starved for 2.5 hours in 5 mL of starvation medium without HKGS, and then individual plates were incubated for two hours with DMSO 0.1%, HKGS, vemurafenib 0.3 μM (0.146 μg/mL), or LUT014 0.3 μM (0.158 μg/mL). […] Cells were harvested with 1 ml cold PBS containing EDTA-free, phosphatase inhibitor cocktail (MilliporeSigma, Burlington, MA) using a cell scraper. […] The signals of phosphorylated ERK1/2 and total ERK2 were quantified using ImageJ software and the phosphorylated ERK1/2/total ERK2 ratio was calculated. For the quantification, equal sized rectangles were drawn around the bands of the phosphorylated ERK1/2 and the total ERK2 and the pixels in each rectangle were measured.

[5] = topical gel 0.3, 1.0, 2.5 mg/g once daily, 4 weeks, 10 patients

Cc1ccc2c(Nc3cccc(OC(F)(F)F)c3)nccc2c1Nc1ncccc1-c1ncnc2[nH]cnc12 [LUT014]
toxicities associated with oral systemic BRAF inhibitors (photosensitivity, maculo-papular rash, hyperkeratosis) ([1]; all cohorts): no local or systemic toxicities
patients with an adverse event considered related to the study drug ([1]; all cohorts, 10 patients, pruritus, dry skin, stinging sensation): Seven
Treatment-related adverse events: Dry skin, All Grades ([1]; human, in vivo, 4 weeks): 1
Treatment-related adverse events: Dry skin, Grade 3 or 4 ([1]; human, in vivo, 4 weeks): 0
Treatment-related adverse events: Local Pain, All Grades ([1]; human, in vivo, 4 weeks): 1
Treatment-related adverse events: Local Pain, Grade 3 or 4 ([1]; human, in vivo, 4 weeks): 0
Treatment-related adverse events: Pruritus, All Grades ([1]; human, in vivo, 4 weeks): 6
Treatment-related adverse events: Pruritus, Grade 3 or 4 ([1]; human, in vivo, 4 weeks): 0
severity grade of related adverse events ([1]; human, in vivo, 4 weeks): 1-2
total adverse events of any attribution ([1]; human, in vivo, 4 weeks): 38
dose-limiting toxicities [1, 5]: no dose-limiting toxicities; also recorded: no dose limiting toxicity
tolerability [1, 5]: well tolerated
concentration of peak proliferation [2]: 0.041 µM
proliferation at the highest concentrations [2]: growth arrest
increase in pERK, compared with HKGS [3]: higher
effect on pERK inhibition by EGFR inhibitors (erlotinib, cetuximab) [4]: abrogated the inhibitory effect of both EGFR inhibitors
